Here are results for 38 compounds from patent publication US9499493B2, “2,4-pyrimidinediamine compounds and their uses” (Rigel Pharmaceuticals, Inc., priority 2002, dated 2016).

Test [1] concerns cultured human mast cells (CHMC). As to the kind of experiment: CHMC low cell density IgE activation: tryptase assay. The format is cell-based. Conditions: anti-IgE. Summed up: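 Degranulation was triggered with anti-IgE for 30 minutes at 37° C in cultured human mast cells seeded at low density (1000-1500 cells/well, chosen by donor) after a 1 hr equilibration in MT buffer. Released tryptase in cleared supernatant was quantified with a tryptase substrate at room temperature for 30 minutes.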

The test system is the same in test [2]. Briefly: CHMC low cell density ionomycin activation: tryptase assay. The format is cell-based.

Counter-ions that a name gives are not always drawn.

Take “5-Cyano-N2-(3,4-ethylenedioxyphenyl)-N4-(methoxycarbonylbenzyl)-2,4-pyrimidinediamine [R925820]”: the IC50 in test [1] and in test [2] was above 10 µM each time. For “5-Cyano-N2-(3-hydroxyphenyl)-N4-(methoxycarbonylbenzyl)-2,4-pyrimidinediamine [R925821]”, the IC50 in test [1] and in test [2] was above 10 µM throughout. On to “5-Fluoro N4-(3-hydroxyphenyl)-N2-(5-methyl-4-oxazolyl-2-phenyl)-2,4-pyrimidinediamine [R926779]”, for which the IC50 in test [1] and in test [2] was above 10 µM each time. Regarding `CC1Sc2ccc(Nc3ncc(F)c(Nc4cccc(O)c4)n3)cc2NC1=O` (racemic) [R909263, (+/−)-5-Fluoro-N4-(3-hydroxyphenyl]-N2-(2-methyl-1,4-benzothiazin-3-on-6-yl)pyrimidinediamine], the figures for the IC50 in test [1] and in test [2] were 0.289 µM and above 10 µM, respectively.

Regarding `COC(=O)C(C)Oc1ccc(Nc2ccnc(Nc3ccc(OC(C)C(=O)OC)cc3)n2)cc1` (racemic) [R926257, (±)-N2,N4-Bis[4-methoxycarbonyhalpha-methypmethyleneoxyphenyl]-2,4-pyrimidinediamine], the IC50 was 1.5 µM in test [1] and 7.5 µM in test [2]. The matching figures for `CCOC(=O)C(C)Oc1ccc(Nc2ncc(C)c(Nc3ccc(OC(C)C(=O)OCC)cc3)n2)cc1` (racemic) [R926259, (±)-N2,N4-Bis[4-ethoxycarbonyl(alpha-methyl)methyleneoxyphenyl]-5-methyl-2,4-pyrimidinediamine]: 2.5 µM and 6.2 µM. The matching figures for `COC(=O)C1Cc2cc(Nc3ncc(F)c(Nc4cccc(C(F)(F)F)c4)n3)ccc2O1` (racemic) [R927028, (±)-N2-(2,3-Dihydro-2-methoxycarbonylbenzofuran-5-yl)-5-fluoro-N4-(3-trifluorophenyl)-2,4-pyrimidinediamine]: 0.208 µM and above 10 µM.

For `CNC(=O)C1Cc2cc(Nc3ncc(F)c(Nc4ccc(OCCO)nc4)n3)ccc2O1` (racemic) [R927039, (±)-N2-[2,3-Dihydro-(N-methylamino)carbonylbenzofuran-5-yl]-5-fluoro-N4-[2-(2-hydroxyethyleneoxy)pyridin-5-yl]-2,4-pyrimidinediamine], the figures for the IC50 in test [1] and in test [2] were 1.23 µM and above 10 µM, respectively. Take `CNC(=O)C1Cc2cc(Nc3ncc(F)c(Nc4ccc5c(c4)OC(F)(F)O5)n3)ccc2O1` (racemic) [R927041, (±)-N2-[2,3-Dihydro-(N-methylamino)carbonylbenzofuran-5-yl]-N4-(3,4-difluoromethyleneoxyphenyl)-5-fluoro-2,4-pyrimidinediamine]: the IC50 in test [1] was 0.788 µM; in test [2], above 10 µM.

`Nc1cccc(Nc2nc(Nc3cccc(NC(=O)CCC(C(=O)O)N4C(=O)c5ccccc5C4=O)c3)ncc2F)c1` (racemic) [R950251, (±)-N4-(3-Aminophenyl)-5-fluoro-N2-(3-(3-carboxy-3-D,L-N-phtaloylamino)propylenecarbonylaminophenyl)-2,4-pyrimidinediamine]: the IC50 in test [1] and in test [2] was above 10 µM each time. Take `Nc1cccc(Nc2nc(Nc3cccc(NC(=O)CCC(N)C(=O)O)c3)ncc2F)c1` (racemic) [R950255, (±)-N4-(3-Aminophenyl)-5-fluoro-N2-[3-(3-carboxy-3-amino)propylenecarbonylaminophenyl]-2,4-pyrimidinediamine]: the IC50 in test [1] is 10 µM; in test [2] it was above 10 µM. In the same order, the values of `Fc1cnc(Cl)nc1Nc1cccc(-c2nnn[nH]2)c1` [Compound R926853] are above 10 µM and above 10 µM. The matching figures for `COC(=O)c1cc(Nc2nc(Cl)ncc2F)cc(C(F)(F)F)c1` [Compound R926861]: above 10 µM and above 10 µM. In the same order, the values of `Fc1cnc(Cl)nc1Nc1ccc2c(c1)CN(c1nc(Cl)ncc1F)CC2` [Compound R926910] are above 10 µM and above 10 µM. With `CC(C)(C)OC(=O)N1CCc2ccc(Nc3nc(Cl)ncc3F)cc2C1` [Compound R926911], the IC50 in test [1] and in test [2] was above 10 µM in each case. As to `Fc1cnc(Cl)nc1Nc1ccc2c(c1)CNCC2` [Compound R926912], the 50% inhibitory concentration (IC50) in test [1] and in test [2] was above 10 µM each time. As to `Cc1ccc(Nc2nc(Cl)ncc2F)cc1C(F)(F)F` [Compound R926920], the IC50 in test [1] and in test [2] was above 10 µM each time. `CC1(C)Oc2ccc(Nc3nc(Cl)ncc3F)cc2NC1=O` [Compound R940322]: the IC50 in test [1] and in test [2] was above 10 µM each time.

In the case of `O=C1COc2ccc(Nc3nc(Cl)ncc3F)nc2N1` [Compound R945298], the IC50 in test [1] and in test [2] was above 10 µM throughout. Take `O=C1COc2cc(Nc3nc(Nc4cccc(O)c4)ncc3F)ccc2N1` [R908698]: the IC50 in test [1] is 1.67 µM; in test [2] it was above 10 µM. As for `COc1cc(Nc2ncc(F)c(Nc3ccc(OCc4nc(-c5ccccc5)no4)cc3)n2)cc(OC)c1OC` [R935367, 5-Fluoro-N4-[4-(3-phenyl-1,2,4-oxadiazol-5-yl)methyleneoxyphenyl]-N2-(3,4,5-trimethoxyphenyl)-2,4-pyrimidinediamine], the IC50 in test [2] is above 10 µM. In turn, `CNC(=O)CCn1ncc2cc(Nc3ncc(F)c(Nc4ccc(OC(F)(F)F)c(Cl)c4)n3)ccc21` [R935369, N4-(3-Chloro-4-trifluoromethoxyphenyl)-5-fluoro-N2-[1-[2(N-methylaminocarbonyl)ethyl]indazoline-5-yl]-2,4-pyrimidinediamine] came in with an IC50 in test [2] above 10 µM. In turn, `Cc1cc(Nc2nc(Nc3cccc(OCCN4CCOCC4)c3)ncc2F)cc(C)c1O` [R940255, N4-(3,5-Dimethyl-4-hydroxyphenyl)-5-fluoro-N2-[3-[2-(N-morpholino)ethyleneoxy]phenyl]-2,4-pyrimidinediamine] had an IC50 in test [2] above 10 µM.

`Cc1cc(Nc2nc(Nc3cccc(OCCN4CCOCC4)c3)ncc2F)cc(C)c1O` [R940256, N4-(3,5-Dimethyl-4-hydroxyphenyl)-5-fluoro-N2-[3-[2-(N-morpholino)ethyloxy]phenyl]-2,4-pyrimidinediamine Hydrogen Chloride Salt]: in test [2], the half-maximal inhibitory concentration (IC50) was above 10 µM. The compound `CC(C)(CO)NC(=O)COc1cccc(Nc2ncc(F)c(Nc3cccc(C(C)(C)C)c3)n2)c1` [R940308, N4-(3-tert-Butylpheny)-5-fluoro-N2-[3-(1,1-dimethyl-2-hydroxyethylaminocarbonylmethyleneoxy)-phenyl]-2,4-pyrimidinediamine] yielded an IC50 in test [2] of 4.17 µM. The compound `N#CCOc1ccc(Nc2ncc(F)c(Nc3cccc(O)c3)n2)cc1` [R945070, N2-(4-Cyanomethyleneoxyphenyl)-5-fluoro-N4-(3-hydroxyphenyl)-2,4-pyrimidinediamine] registered a half-maximal inhibitory concentration (IC50) in test [2] above 10 µM.

As to `COC(=O)COc1ccc(Nc2ncc(F)c(Nc3cccc(C#N)c3)n2)cc1` [R945110, N4-(3-Cyanophenyl)-5-fluoro-N2-(4-methoxycarbonylmethyleneoxyphenyl)-2,4-pyrimidinediamine], the IC50 in test [2] is above 10 µM. For `OCCNc1cccc(Nc2ncc(F)c(Nc3cccc(NCCO)c3)n2)c1` [R950181, N2,N4-Bis(3-hydroxyethyleneaminophenyl)-5-fluoro-2,4-pyrimidinediamine], the concentration for half-maximal inhibition (IC50) in test [2] is above 10 µM.

For the compound `O=C(CNc1cccc(Nc2ncc(F)c(Nc3ccc4c(c3)OCCO4)n2)c1)NCCO` [R950195, N4-(3,4-Ethylenedioxyphenyl)-5-fluoro-N2-[3-(N-2-hydroxyethyleneamino)carbonylmethyleneaminophenyl]-5-fluoro-2,4-pyrimidinediamine], the IC50 in test [2] was above 10 µM. The same measure, in the same setting: for `CSc1nc2ccc(Nc3ncc(F)c(Nc4cccc(O)c4)n3)cc2s1` [R950212, 5-Fluoro-N4-(3-hydroxyphenyl)-N2-[2-(methylthio)-1,3-benzothiaz-6-yl)-2,4-pyrimidinediamine] the value was above 10 µM. Regarding `CNC(=O)CNc1cccc(Nc2ncc(F)c(Nc3cccc(O)c3)n2)c1` [R950218], the IC50 in test [2] (Homo sapiens, Mast cell) was above 10 µM. On to `CNC(=O)COc1cccc(Nc2ncc(F)c(Nc3cccc([N+](=O)[O-])c3)n2)c1` [R950261, N4-(3-Nitrophenyl)-5-fluoro-N2-[3-(N-methylamino)carbonylmethyleneoxyphenyl]-2,4-pyrimidinediamine], for which, in test [2], the IC50 is above 10 µM. Consider `CNC(=O)COc1cccc(Nc2ncc(F)c(Nc3cccc(NCCO)c3)n2)c1` [R950265, N4-(3-N-Hydroxyethylaminophenyl)-5-fluoro-N2-[3-(N-methylamino)carbonylmethyleneoxyphenyl]-2,4-pyrimidinediamine], for which the IC50 in test [2] is above 10 µM.

As to `CNC(=O)COc1cccc(Nc2ncc(F)c(Nc3cccc(N(CCO)CCO)c3)n2)c1` [R950266, N4-(3-Bis(N-hydroxyethyl)aminophenyl)-5-fluoro-N2-[3-(N-methylamino)carbonylmethyleneoxyphenyl]-2,4-pyrimidinediamine], in test [2], the IC50 was above 10 µM. Same read-out and setting: for `CNC(=O)COc1cccc(Nc2ncc(F)c(Nc3ccc4c(c3)C(N)CCO4)n2)c1` (stereo not shown) [R950368, N4-(4-Amino-3,4-dihydro-2H-1-benzopyran-6-yl)-5-fluoro-N2-[3-(N-methylamino)carbonylmethyleneoxyphenyl]-2,4-pyrimidinediamine] the value was above 10 µM; for `CNC(=O)COc1cccc(Nc2ncc(F)c(Nc3ccc4c(c3)C(N=[N+]=[N-])CCO4)n2)c1` (stereo not shown) [R950383, N4-(4-Azido-3,4-dihydro-2H-1-benzopyran-6-yl)-5-fluoro-N2-[3-(N-methylamino)carbonylmethyleneoxyphenyl]-2,4-pyrimidinediamine], above 10 µM; for `CCOc1ccc(Nc2nc(Nc3cccc(OCC(=O)NC)c3)ncc2F)cc1S(=O)(=O)O` [R950389, N4-(4-Ethoxy-3-hydroxysulfonylphenyl)-5-fluoro-N2-[3-(N-methylamino)carbonylmethyleneoxyphenyl]-2,4-pyrimidinediamine], above 10 µM. As for “N4-(3,4-Ethylenedioxyphenyl)-5-fluoro-N2-[3-(2-N-methylaminoethyl)phenyl]-2,4-pyrimidinediamine Hydrogen Chloride Salt [R926509]”, the IC50 in test [2] was above 10 µM.
